Source: patent publication US20220153754A1 (JANSSEN SCIENCES IRELAND UNLIMITED COMPANY, priority 2019, published 2022)

Each molecule was assayed on HBV (assay: HBV replication inhibition assay (BDNA assay)). Details: Hepatitis B virus, HepG2.2.15, 144 h, HepG2.2.15 cells, incubated with compound for 6 days, encapsidated HBV DNA from supernatant detected by branched DNA QuantiGene assay.
Type: cell-based
Description: HBV replication inhibition by the disclosed compounds were determined in cells infected or transfected with HBV or cells with stably integrated HBV, such as HepG2.2.15 cells (Sells et al. 1987). In this example, HepG2.2.15 cells were maintained in cell culture medium containing 10% fetal bovine serum (FBS), Geneticin, L-glutamine, penicillin and streptomycin. HepG2.2.15 cells were seeded in 96-well plates at a density of 40,000 cells/well and were treated with serially diluted compounds at a final DMSO concentration of 0.5% either alone or in combination by adding drugs in a checker box format. Cells were incubated with compounds for three days, after which medium was removed and fresh medium containing compounds was added to cells and incubated for another three days. At day 6, supernatant was removed and treated with DNase at 37° C. for 60 minutes, followed by enzyme inactivation at 75° C. for 15 minutes. Encapsidated HBV DNA was released from the virions and covalently linked HBV polymerase by incubating in lysis buffer (Affymetrix QS0010) containing 2.5 μg proteinase K at 50° C. for 40 minutes. HBV DNA was denatured by addition of 0.2 M NaOH and detected using a branched DNA (BDNA) QuantiGene assay kit according to manufacturer recommendation (Affymetrix). HBV DNA levels were also quantified using qPCR, based on amplification of encapsidated HBV DNA extraction with QuickExtraction Solution (Epicentre Biotechnologies) and amplification of HBV DNA using HBV specific PCR probes that can hybridize to HBV DNA and a fluorescently labeled probe for quantitation. In addition, cell viability of HepG2.2.15 cells incubated with test compounds alone or in combination was determined by using CellTitre-Glo reagent according to the manufacturer protocol (Promega). The mean background signal from wells containing only culture medium was subtracted from all other samples, and percent inhibition at each compound concentration was calculated by normalizing to signals from HepG2.2.15 cells treated with 0.5% DMSO using equation E1.
where DMSOave is the mean signal calculated from the wells that were treated with DMSO control (0% inhibition control) and Xi is the signal measured from the individual wells. EC50 values, effective concentrations that achieved 50% inhibitory effect, were determined by non-linear fitting using Graphpad Prism software (San Diego, Calif.) and equation E2.
where Y represents percent inhibition values and X represents the logarithm of compound concentrations.
Selected disclosed compounds were assayed in the HBV replication assay (BDNA assay), as described above, and a representative group of these active compounds is shown in Table 3.

**Q.** For `C[C@@H]1Cc2nn3c(c2CN1C(=O)Nc1ccc(F)c(C#N)c1)-c1ncccc1CCC3` [Example 16, (11R)—N-(3-Cyano-4-fluorophenyl)-11-methyl-6,7,10,11-tetrahydro-5H-pyrido[2,3-c]pyrido[4′,3′:3,4]pyrazolo[1,5-a]azepine-12(13H)-carboxamide], which EC50 is on record?
**A.** The EC50 was 330 nM.

**Q.** `N#Cc1cc(NC(=O)N2CCc3nn4c(c3C2)-c2nocc2CC(CO)C4)ccc1F` (stereo not drawn) [Example 3, N-(3-Cyano-4-fluorophenyl)-5-(hydroxymethyl)-5,6,9,10-tetrahydro-4H-isoxazolo[3,4-c]pyrido[4′,3′:3,4]pyrazolo[1,5-a]azepine-11(12H)-carboxamide] was tested. Which EC50 did it give?
**A.** Its EC50 is 23 nM.

**Q.** How did the EC50 turn out when `O=C(Nc1ccc(F)c(C(F)(F)F)c1)N1CCc2nn3c(c2C1)-c1nocc1CC(COCC(F)F)C3` (single isomer, unassigned) [Example 6, (5S*)-5-((2,2-Difluoroethoxy)methyl)-N-(4-fluoro-3-(trifluoromethyl)phenyl)-5,6,9,10-tetrahydro-4H-isoxazolo[3,4-c]pyrido[4′,3′:3,4]pyrazolo[1,5-a]azepine-11(12H)-carboxamide] was run?
**A.** The EC50 was 45 nM.

**Q.** Which EC50 does the source give for `N#Cc1cc(NC(=O)N2CCn3nc4c(c3C2)-c2oncc2CCC4)ccc1F` [Example 33, N-(3-Cyano-4-fluorophenyl)-5,6,9,10-tetrahydro-4H-isoxazolo[5″,4″:3′,4′]-cyclohepta[1′,2′:3,4]pyrazolo[1,5-a]pyrazine-11(12H)-carboxamide] here?
**A.** Its EC50 is 790 nM.

**Q.** How did the EC50 turn out when `N#Cc1cc(NC(=O)N2CCn3nc4c(c3C2)-c2nocc2CCC4)ccc1F` [Example 35, N-(3-Cyano-4-fluorophenyl)-5,6,9,10-tetrahydro-4H-isoxazolo[3″,4″:3′,4′]-cyclohepta[1′,2′:3,4]pyrazolo[1,5-a]pyrazine-11(12H)-carboxamide] was run?
**A.** The EC50 was 170 nM.

**Q.** Which EC50 does the source give for `C=C1Cc2cnoc2-c2c3c(nn2C1)CCN(C(=O)Nc1ccc(F)c(C(F)(F)F)c1)C3` [Example 10, N-(4-Fluoro-3-(trifluoromethyl)phenyl)-5-methylene-5,6,9,10-tetrahydro-4H-isoxazolo[5,4-c]pyrido[4′,3′:3,4]pyrazolo[1,5-a]azepine-11(12H)-carboxamide] here?
**A.** Its EC50 is 350 nM.

**Q.** Which EC50 does the source give for `C=C1Cc2conc2-c2c3c(nn2C1)CCN(C(=O)Nc1ccc(F)c(C#N)c1)C3` [Example 1, N-(3-Cyano-4-fluorophenyl)-5-methylene-5,6,9,10-tetrahydro-4H-isoxazolo[3,4-c]pyrido[4′,3′:3,4]pyrazolo[1,5-a]azepine-11(12H)-carboxamide] here?
**A.** Its EC50 is 64 nM.

**Q.** How did the EC50 turn out when `C[C@@H]1Cc2nn3c(c2CN1C(=O)Nc1ccc(F)c(C(F)(F)F)c1)-c1ncccc1CCC3` [Example 17, (11R)—N-(4-Fluoro-3-(trifluoromethyl)phenyl)-11-methyl-6,7,10,11-tetrahydro-5H-pyrido[2,3-c]pyrido[4′,3′:3,4]pyrazolo[1,5-a]azepine-12(13H)-carboxamide] was run?
**A.** The EC50 was 220 nM.

**Q.** `O=C(Nc1ccc(F)c(C(F)(F)F)c1)N1CCn2nc3c(c2C1)-c1oncc1CCC3` [Example 34] was tested. Which EC50 did it give?
**A.** Its EC50 is 440 nM.

**Q.** For `O=C(Nc1ccc(F)c(C(F)(F)F)c1)N1CCn2nc3c(c2C1)-c1nocc1CCC3` [Example 36, N-(4-Fluoro-3-(trifluoromethyl)phenyl)-5,6,9,10-tetrahydro-4H-isoxazolo[3″,4″:3′,4′]cyclohepta[1′,2′:3,4]pyrazolo[1,5-a]pyrazine-11(12H)-carboxamide], which EC50 is on record?
**A.** Its EC50 is 180 nM.

**Q.** How did the EC50 turn out when `C[C@@H]1Cc2nn3c(c2CN1C(=O)Nc1ccc(F)c(C#N)c1)-c1nocc1CCC3` [Example 18, (10R)—N-(3-Cyano-4-fluorophenyl)-10-methyl-5,6,9,10-tetrahydro-4H-isoxazolo[3,4-c]pyrido[4′,3′:3,4]pyrazolo[1,5-a]azepine-11(12H)-carboxamide] was run?
**A.** Its EC50 is 15 nM.

**Q.** With `O=C(Nc1ccc(F)c(Cl)c1)N1CCc2nn3c(c2C1)-c1oncc1CCC3` [Example 32, N-(3-Chloro-4-fluorophenyl)-5,6,9,10-tetrahydro-4H-isoxazolo[5,4-c]pyrido[4′,3′:3,4]pyrazolo[1,5-a]azepine-11(12H)-carboxamide] as the molecule, how does the EC50 read?
**A.** Its EC50 is 12 nM.
